≈ marks a conversion by molar mass, not a printed value. Like-named read-outs stand apart in the source and are kept apart here. Numbered stars: 1 amine (or outer) side, 2 acyl side, 3 side chain; on linkers, the order of the positions; unused ones are H or OH. Bridge positions count the residues as written; N and C are the ends. Side chains are listed from the residue outwards. Peptide text beside a SMILES is read from it. * marks the point of attachment. C20 diacid = O=C(O)CCCCCCCCCCCCCCCCCCC(=O)*; γGlu = O=C(O)[C@H](CCC(=O)[*:2])N[*:1]; AEEA = NCCOCCOCC(=O)O
Assays:
[1] = ASSAY (IV) determination of solubility; assay type: physicochemical
Summary of the method: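 Polypeptide stock in water ([…]) was mixed 1:1 with 100 mM buffers: glycylglycine at pH 3.0, 4.0, 5.0 and bistrispropane at pH 6.0, 6.5, 7.0, 7.5, 8.0. After 18 hours at room temperature, samples were centrifuged and polypeptide concentration measured by UPLC.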

[2] = ASSAY (III) ThT fibrillation assay for physical stability; assay type: physicochemical
Summary of the method: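 Formulations with 1 μM ThT, pH adjusted as required, incubated at 37 °C with 960 rpm orbital shaking; fluorescence (ex 444/em 485 nm) read every 20 min. Fibrillation reported as mean ThT fluorescence ± SD of 4–8 replicates at time points; polypeptide concentration measured by reverse-phase HPLC before and after, post-centrifugation.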

[3] = system: Sprague Dawley (SD) rats; experiment: ASSAY (I) efficacy testing on appetite (food intake) using an ad libitum fed rat model; assay type: in vivo; conditions: rat, 30 nmol/kg
Summary of the method: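 Ad libitum fed SD rats (200–250 g) were housed singly on a reversed light/dark cycle and given one 0.01–3 mg/kg dose ip, po or sc just before lights-off, with 5–8 per dose group plus vehicle controls. Food intake was recorded hourly for 7 h, then at 24 h and sometimes 48 h; Grubbs outliers were excluded.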

[4] = bistrispropane buffer, pH 6.5, read-out: Solubility pH 6.5 Concentration
[5] = bistrispropane buffer, pH 7.5, read-out: Solubility pH 7.5 Concentration
[6] = bistrispropane buffer, pH 6.0, read-out: Solubility pH 6.0 Concentration
[7] = bistrispropane buffer, pH 7.0, read-out: Solubility pH 7.0 Concentration
[8] = bistrispropane buffer, pH 8.0, read-out: Solubility pH 8.0 Concentration
[9] = glycylglycine buffer, pH 3.0, read-out: Solubility pH 3.0 Concentration
[10] = glycylglycine buffer, pH 4.0, read-out: Solubility pH 4.0 Concentration
[11] = glycylglycine buffer, pH 5.0, read-out: Solubility pH 5.0 Concentration

CC[C@H](C)[C@H](NC(=O)[C@H](C)NC(=O)CNC(=O)[C@H](Cc1ccccc1)NC(=O)[C@H](CC(N)=O)NC(=O)[C@@H]1CCCN1C(=O)[C@H](CO)NC(=O)[C@H](CO)NC(=O)[C@H](Cc1c[nH]cn1)NC(=O)[C@H](CCCNC(=N)N)NC(=O)[C@H](CC(C)C)NC(=O)[C@H](Cc1ccccc1)NC(=O)[C@H](CC(N)=O)NC(=O)[C@H](C)NC(=O)[C@H](CC(C)C)NC(=O)[C@H](CCCNC(=N)N)NC(=O)[C@H](CCC(N)=O)NC(=O)[C@@H](NC(=O)[C@H](C)NC(=O)[C@@H]1CSSC[C@H](NC(=O)[C@@H](N)CCCCNC(=O)CC[C@H](NC(=O)CCCCCCCCCCCCCCCCCCC(=O)O)C(=O)O)C(=O)N[C@@H](CC(N)=O)C(=O)N[C@@H]([C@@H](C)O)C(=O)N[C@@H](C)C(=O)N[C@@H]([C@@H](C)O)C(=O)N1)[C@@H](C)O)C(=O)N1CCC[C@H]1C(=O)N[C@@H](CO)C(=O)N[C@@H](CO)C(=O)N[C@H](C(=O)N[C@@H](CC(N)=O)C(=O)N[C@H](C(=O)NCC(=O)N[C@@H](CO)C(=O)N[C@@H](Cc1c[nH]cn1)C(=O)N[C@H](C(=O)N[C@@H](Cc1ccc(O)cc1)C(N)=O)[C@@H](C)O)C(C)C)[C@@H](C)O [Example 60]
solubility at 18 h [1, 4]: ≥ 200 µM | solubility at 18 h [1, 5]: 186 µM (≈ 819 µg/mL) | solubility at 18 h [1, 6]: ≥ 200 µM | solubility at 18 h [1, 7]: ≥ 200 µM | solubility at 18 h [1, 8]: 98 µM (≈ 432 µg/mL) | solubility at 18 h [1, 9]: ≥ 200 µM | solubility at 18 h [1, 10]: ≥ 200 µM | solubility at 18 h [1, 11]: ≥ 200 µM | ThT pH 4.0 lag time (h) [2]: 45 h | Food intake reduction 0-24 h 30 nmol/kg (%) [3]: 69% | Food intake reduction 24-48 h 30 nmol/kg (%) [3]: 21%

CC[C@H](C)[C@H](NC(=O)[C@H](C)NC(=O)CNC(=O)[C@H](Cc1ccccc1)NC(=O)[C@H](CC(N)=O)NC(=O)[C@@H]1CCCN1C(=O)[C@H](CO)NC(=O)[C@H](CO)NC(=O)[C@H](Cc1c[nH]cn1)NC(=O)[C@H](CCCNC(=N)N)NC(=O)[C@H](CC(C)C)NC(=O)[C@H](Cc1ccccc1)NC(=O)[C@H](Cc1c[nH]cn1)NC(=O)[C@H](C)NC(=O)[C@H](CC(C)C)NC(=O)[C@H](CCCNC(=N)N)NC(=O)[C@H](CCC(N)=O)NC(=O)[C@@H](NC(=O)[C@H](C)NC(=O)[C@@H]1CSSC[C@H](NC(=O)[C@@H](N)CCCCNC(=O)COCCOCCNC(=O)CC[C@H](NC(=O)CCCCCCCCCCCCCCCCCCC(=O)O)C(=O)O)C(=O)N[C@@H](CC(N)=O)C(=O)N[C@@H]([C@@H](C)O)C(=O)N[C@@H](C)C(=O)N[C@@H]([C@@H](C)O)C(=O)N1)[C@@H](C)O)C(=O)N1CCC[C@H]1C(=O)N[C@@H](CO)C(=O)N[C@@H](CO)C(=O)N[C@H](C(=O)N1CCC[C@H]1C(=O)N[C@H](C(=O)NCC(=O)N[C@@H](CO)C(=O)N[C@@H](CC(N)=O)C(=O)N[C@H](C(=O)N[C@@H](Cc1ccc(O)cc1)C(N)=O)[C@@H](C)O)C(C)C)[C@@H](C)O [Example 61] (H-K([AEEA-γGlu-C20 diacid])CNTATCATQRLAHFLRHSSPNFGAIPSSTPVGSNTY-NH2; disulfide 2-7 (inferred))
solubility at 18 h [1, 4]: ≥ 200 µM | solubility at 18 h [1, 5]: ≥ 200 µM | solubility at 18 h [1, 6]: ≥ 200 µM | solubility at 18 h [1, 7]: ≥ 200 µM | solubility at 18 h [1, 8]: 153 µM (≈ 693 µg/mL) | solubility at 18 h [1, 9]: ≥ 200 µM | solubility at 18 h [1, 10]: ≥ 200 µM | solubility at 18 h [1, 11]: ≥ 200 µM | ThT pH 4.0 lag time (h) [2]: 45 h | Food intake reduction 0-24 h 30 nmol/kg (%) [3]: 53% | Food intake reduction 24-48 h 30 nmol/kg (%) [3]: 18%

CC[C@H](C)[C@H](NC(=O)[C@H](C)NC(=O)CNC(=O)[C@H](Cc1ccccc1)NC(=O)[C@H](CC(N)=O)NC(=O)[C@@H]1CCCN1C(=O)[C@H](CO)NC(=O)[C@H](CO)NC(=O)[C@H](Cc1c[nH]cn1)NC(=O)[C@H](CCCNC(=N)N)NC(=O)[C@H](CC(C)C)NC(=O)[C@H](Cc1ccccc1)NC(=O)[C@H](Cc1c[nH]cn1)NC(=O)[C@H](C)NC(=O)[C@H](CC(C)C)NC(=O)[C@H](CCCNC(=N)N)NC(=O)[C@H](CCC(N)=O)NC(=O)[C@@H](NC(=O)[C@H](C)NC(=O)[C@@H]1CSSC[C@H](NC(=O)[C@@H](N)CCCCNC(=O)CC[C@H](NC(=O)CCCCCCCCCCCCCCCCCCC(=O)O)C(=O)O)C(=O)N[C@@H](CC(N)=O)C(=O)N[C@@H]([C@@H](C)O)C(=O)N[C@@H](C)C(=O)N[C@@H]([C@@H](C)O)C(=O)N1)[C@@H](C)O)C(=O)N1CCC[C@H]1C(=O)N[C@@H](CO)C(=O)N[C@@H](CO)C(=O)N[C@H](C(=O)N1CCC[C@H]1C(=O)N[C@H](C(=O)NCC(=O)N[C@@H](CO)C(=O)N[C@@H](CC(N)=O)C(=O)N[C@H](C(=O)N[C@@H](Cc1ccc(O)cc1)C(N)=O)[C@@H](C)O)C(C)C)[C@@H](C)O [Example 62] (H-K([γGlu-C20 diacid])CNTATCATQRLAHFLRHSSPNFGAIPSSTPVGSNTY-NH2; disulfide 2-7; N-terminus assumed)
solubility at 18 h [1, 4]: ≥ 200 µM | solubility at 18 h [1, 5]: ≥ 200 µM | solubility at 18 h [1, 6]: ≥ 200 µM | solubility at 18 h [1, 7]: ≥ 200 µM | solubility at 18 h [1, 8]: 189 µM (≈ 829 µg/mL) | solubility at 18 h [1, 9]: ≥ 200 µM | solubility at 18 h [1, 10]: ≥ 200 µM | solubility at 18 h [1, 11]: ≥ 200 µM | ThT pH 4.0 lag time (h) [2]: 45 h | Food intake reduction 0-24 h 30 nmol/kg (%) [3]: 62% | Food intake reduction 24-48 h 30 nmol/kg (%) [3]: 18%

CC[C@H](C)[C@H](NC(=O)[C@H](C)NC(=O)CNC(=O)[C@H](Cc1ccccc1)NC(=O)[C@H](CC(N)=O)NC(=O)[C@@H]1CCCN1C(=O)[C@H](CO)NC(=O)[C@H](CO)NC(=O)[C@H](Cc1c[nH]cn1)NC(=O)[C@H](CCCNC(=N)N)NC(=O)[C@H](CC(C)C)NC(=O)[C@H](Cc1ccccc1)NC(=O)[C@H](CCCNC(=N)N)NC(=O)[C@H](C)NC(=O)[C@H](CC(C)C)NC(=O)[C@H](CCCNC(=N)N)NC(=O)[C@H](CCC(N)=O)NC(=O)[C@@H](NC(=O)[C@H](C)NC(=O)[C@@H]1CSSC[C@H](NC(=O)[C@@H](N)CCCCNC(=O)COCCOCCNC(=O)CC[C@H](NC(=O)CCCCCCCCCCCCCCCCCCC(=O)O)C(=O)O)C(=O)N[C@@H](CC(N)=O)C(=O)N[C@@H]([C@@H](C)O)C(=O)N[C@@H](C)C(=O)N[C@@H]([C@@H](C)O)C(=O)N1)[C@@H](C)O)C(=O)N1CCC[C@H]1C(=O)N[C@@H](CO)C(=O)N[C@@H](CO)C(=O)N[C@H](C(=O)N1CCC[C@H]1C(=O)N[C@H](C(=O)NCC(=O)N[C@@H](CO)C(=O)N[C@@H](CC(N)=O)C(=O)N[C@H](C(=O)N[C@@H](Cc1ccc(O)cc1)C(N)=O)[C@@H](C)O)C(C)C)[C@@H](C)O [Example 64] (H-K([AEEA-γGlu-C20 diacid])CNTATCATQRLARFLRHSSPNFGAIPSSTPVGSNTY-NH2; disulfide 2-7; N-terminus assumed)
solubility at 18 h [1, 4]: ≥ 200 µM | solubility at 18 h [1, 5]: ≥ 200 µM | solubility at 18 h [1, 6]: ≥ 200 µM | solubility at 18 h [1, 7]: ≥ 200 µM | solubility at 18 h [1, 8]: ≥ 200 µM | solubility at 18 h [1, 9]: ≥ 200 µM | solubility at 18 h [1, 10]: ≥ 200 µM | solubility at 18 h [1, 11]: ≥ 200 µM | ThT pH 4.0 lag time (h) [2]: 45 h | Food intake reduction 0-24 h 30 nmol/kg (%) [3]: 4% | Food intake reduction 24-48 h 30 nmol/kg (%) [3]: 3%

CC[C@H](C)[C@H](NC(=O)[C@H](C)NC(=O)CNC(=O)[C@H](Cc1ccccc1)NC(=O)[C@H](CC(N)=O)NC(=O)[C@@H]1CCCN1C(=O)[C@H](CO)NC(=O)[C@H](CO)NC(=O)[C@H](Cc1c[nH]cn1)NC(=O)[C@H](CCCNC(=N)N)NC(=O)[C@H](CC(C)C)NC(=O)[C@H](Cc1ccccc1)NC(=O)[C@H](CCCNC(=N)N)NC(=O)[C@H](C)NC(=O)[C@H](CC(C)C)NC(=O)[C@H](CCCNC(=N)N)NC(=O)[C@H](CCC(N)=O)NC(=O)[C@@H](NC(=O)[C@H](C)NC(=O)[C@@H]1CSSC[C@H](NC(=O)[C@@H](N)CCCCNC(=O)CC[C@H](NC(=O)CCCCCCCCCCCCCCCCCCC(=O)O)C(=O)O)C(=O)N[C@@H](CC(N)=O)C(=O)N[C@@H]([C@@H](C)O)C(=O)N[C@@H](C)C(=O)N[C@@H]([C@@H](C)O)C(=O)N1)[C@@H](C)O)C(=O)N1CCC[C@H]1C(=O)N[C@@H](CO)C(=O)N[C@@H](CO)C(=O)N[C@H](C(=O)N[C@@H](CC(N)=O)C(=O)N[C@H](C(=O)NCC(=O)N1CCC[C@H]1C(=O)N[C@@H](CC(N)=O)C(=O)N[C@H](C(=O)N[C@@H](Cc1ccc(O)cc1)C(N)=O)[C@@H](C)O)C(C)C)[C@@H](C)O [Example 65] (H-K([γGlu-C20 diacid])CNTATCATQRLARFLRHSSPNFGAIPSSTNVGPNTY-NH2; disulfide 2-7 (inferred); N-terminus assumed)
solubility at 18 h [1, 4]: ≥ 200 µM | solubility at 18 h [1, 5]: ≥ 200 µM | solubility at 18 h [1, 6]: ≥ 200 µM | solubility at 18 h [1, 7]: ≥ 200 µM | solubility at 18 h [1, 8]: ≥ 200 µM | solubility at 18 h [1, 9]: ≥ 200 µM | solubility at 18 h [1, 10]: ≥ 200 µM | solubility at 18 h [1, 11]: ≥ 200 µM | ThT pH 4.0 lag time (h) [2]: 45 h | Food intake reduction 0-24 h 30 nmol/kg (%) [3]: 10% | Food intake reduction 24-48 h 30 nmol/kg (%) [3]: 0%

— patent US9023789B2, “Amylin analogs and pharmaceutical compositions thereof” (Novo Nordisk A/S, priority 2012, dated 2015)
